According to US20260183396A1, “CXCR3 OVEREXPRESSION IN CAR-NK CELLS PRIMES MIGRATION/HOMING INTO THE TUMOR MICROENVIRONMENT” (DANA-FARBER CANCER INSTITUTE, INC., priority 2022, published 2026):

Columns and labels:
[1] = tested on: NK cells; assay: Immune cell toxicity assays, NK cells; assay type: cell-based; details: 72 hours of high dose exposure; regardless of IL-2 or co-culture with TILs
Experimental: (§1) Immune Cell Toxicity Assays. […] Following treatment, samples were stained with anti-CD45, anti-CD3, anti-CD4, anti-CD8, and anti-CD56 antibodies (Table 1), as well as Zombie Green live/dead (Biolegend 423111) and analyzed by flow cytometry as described above. Data were analyzed using FlowJo software version 10.5.3. As an orthogonal measure of viability, CellTiter-Glo was performed on primary T-cells and NK cells.
(§2) CellTiter-Glo luminescent cell viability assay. Cell viability was assessed using the CellTiter-Glo Luminescent Cell Viability assay (Promega, G7571) according to manufacturer's instructions. […] All conditions were tested in triplicate and plates were read on a Tecan Infinite Mplex Microplate Reader.

[2] = tested on: granzyme B; assay: Granzyme B ELISA, NK / MPM co-culture; assay type: cell-based, human; details: only in co-culture with MPM cells expressing STING
Experimental: (§3) Cytokine analysis. CXCL10 ELISA (R&D Systems DIP100) and granzyme B ELISA (R&D systems DY008) were performed according to manufacturer's instructions on conditioned media collected from cell culture. Cytokine analysis of conditioned media after 3 days of explant (S1) culture (FIG. 9B) utilized the MSD U-PLEX Viral Combo 1 assay (Hu: K15343K-2), which was performed according to manufacturer's instructions.

[3] = tested on: NK cells; assay: Autophagy staining (CYTO-ID); assay type: cell-based, human; details: NK cells following ADU-S100 treatment
Experimental: Autophagy Staining. Autophagy was assessed by vacuole staining to identify autophagolysosomes using the CYTO-ID Autophagy detection kit 2.0 (Enzo ENZ-51031-0050) according to manufacturer's instructions. Briefly, 5×10^5 isolated primary NK cells or TILs were incubated in T-cell growth media (TCGM) with 500 U/mL IL-2, which was refreshed every time the media was changed to ensure proper growth and selection. CLQ from the kit (Enzo 51005-CLQ) was used starting at the recommended initial dose of 10 μM compared with DMSO control. […] The media was collected, and flow cytometry was performed after staining following manufacturer's instructions with CYTO-ID Green Detection Reagent 2.

[4] = tested on: IRF3; assay: IRF3 immunofluorescence in PDOTS; assay type: cell-based, human; details: PDOTS following treatment
Experimental: PDOTS immunofluorescence and live/dead quantification. Dual labeling was performed by loading microfluidic devices with Nexcelom ViaStain acridine orange/propidium iodide (AO/PI) Staining Solution (Nexcelom, CS2-0106) or 10 μg/mL solution of Hoechst 33342 (Thermo Fisher Scientific) and 1 μg/mL solution of PI (Thermo Fisher Scientific). Following incubation with the dyes (20 minutes at room temperature in the dark for AO/PI or 45 minutes for Hoechst 33342/PI), images were captured using 4× objective of a Nikon Eclipse 80i fluorescence microscope equipped with automated motorized stage (Proscan), Z-stack (Prior), and Zyla 5.5 sCMOS camera (Andor). Image capture and analysis were performed using NIS-Elements AR software package. Live and dead cell quantitation was performed by measuring total cell area of each dye. For additional immunofluorescence studies, PDOTS were washed with PBS and blocked with FcR blocking reagent (Miltenyi) for 30 minutes at room temperature. Directly conjugated antibodies CD326 EpCAM-AlexaFluor647 (clone 9C4), CD45-AlexaFluor647 (HI30) (BioLegend), and mesothelin-PE (clone REA1057, Miltenyi) were diluted 1:50 in 10 μg/mL solution of Hoechst 33342 (Thermo Fisher Scientific) in PBS and loaded into microfluidic devices for 1-hour incubation at room temperature in the dark. Spheroids were washed twice with PBS with 0.1% Tween20 followed by PBS. […]

[5] = tested on: STING; assay: STING pathway activation / CXCL10 ELISA in MPM cell lines; assay type: cell-based, human; details: multiple MPM cell lines treated in vitro
Experimental: as §3
Cell culture. MPM cell lines were cultured in RPMI-1640 (Thermo Fisher Scientific) supplemented with 10% FBS (Gemini Bio-products). H226, H28, MSTO-211H, H2452 and H2052 were purchased from ATCC. MS428 was provided by the Richards Lab. H2461 and H2591 were provided to Dr. Janne by the NIH (Pass et al., Ann. Thorac. Surg. 59:835-44 (1995)). JMN1B (Demetri et al., Blood 74:940-6 (1989)) and MS589 (Gordon et al., Am. J. Pathol. 166:1827-40 (2005)) were derived at BWH/DFCI and shared internally with permission. All experiments were performed before reaching 10 passages. Mycoplasma infection was regularly checked by PCR using the conditioned media derived from each cell line with primers as previously described (Kitajima et al., Cancer Discov. 9:34-45 (2019)).
Immunoblotting. Cells were lysed in RIPA buffer containing 1× protease inhibitors (Roche 11-836-145-001) and phosphatase inhibitors (50 mmol/L NaF and 100 mmol/L Na3VO4). […]

[6] = tested on: T-cells; assay: Immune cell toxicity assays, T-cells; assay type: cell-based, human
Experimental: as §1, §2

Nc1ncnc2c1ncn2[C@@H]1O[C@@H]2COP(=O)([S-])O[C@@H]3[C@H](O)[C@@H](COP([O-])(=S)O[C@H]2[C@H]1O)O[C@H]3n1cnc2c(N)ncnc21.[Na+].[Na+] (stereo partly shown) [ADU-S100]
cytotoxicity in human NK cells [1]: no significant cytotoxicity
granzyme release by NK cells [2]: enhanced
autophagic flux [3]: elevated
IRF3 localisation [4]: nuclear translocation
STING pathway activation, CXCL10 secretion [5]: potent pathway activation
cytotoxicity to T-cells by flow cytometry ([6]; MPM tumor explants, increased from 24 to 72 hours): cytotoxic
cytotoxicity in T-cells purified from peripheral blood ([6]; with or without BCMA CAR): dose-dependent cytotoxicity
